Measured values published in paper PMC4237307 (Chembiochem : a European journal of chemical biology, 2014).
Values belong to the molecule of their own block, whether it stands above or below them.

What was measured:
P. berghei = P. berghei parasitemia in mice after prophylactic treatment; assay type: in vivo; conditions: single oral dose 100 mg/kg b.w. before infection
[1] = system: P. berghei-luciferase sporozoites; experiment: Mouse liver stage malaria model, parasite load in livers by in vivo imaging; parameters: species or system C57BL/6 mice
[2] = system: liver stage P. berghei ANKA; assay type: cell-based
liver stage P. berghei = experiment: Time course of liver stage parasite inhibition; conditions: inhibitor added to infected liver cells
[3] = system: liver and blood stage P. berghei; conditions: cited from earlier work
mTOR = conditions: read-out: IC50 mTOR; cited from earlier work
[4] = system: blood stage P. falciparum Dd2; experiment: Blood stage malaria dose-response assay; assay type: cell-based; conditions: read-out: Blood stage malaria IC50
[5] = mouse, in vivo
PfPK5 = PfPK5 (Plasmodium falciparum, UniProt P61075); assay type: binding; conditions: for Percent binding to PfPK5: 10 μM compound
PfPK5, sequence (P61075 whole entry): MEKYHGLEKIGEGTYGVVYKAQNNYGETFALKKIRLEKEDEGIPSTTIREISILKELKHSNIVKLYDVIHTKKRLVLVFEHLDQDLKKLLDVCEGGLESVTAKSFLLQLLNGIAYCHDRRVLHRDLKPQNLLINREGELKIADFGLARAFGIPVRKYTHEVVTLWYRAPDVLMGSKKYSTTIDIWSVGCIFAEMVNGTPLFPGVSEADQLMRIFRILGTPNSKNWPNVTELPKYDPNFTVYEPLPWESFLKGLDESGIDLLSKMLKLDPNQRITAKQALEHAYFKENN

Compound: Cc1nc(N)sc1-c1ccnc(Nc2ccc(N3CCOCC3)cc2)n1 [CYC-116]
P. berghei parasitemia vs vehicle (P. berghei): reduction in P. berghei parasitemia | Parasite load in mouse livers vs vehicle ([1]; single oral dose 100 mg/kg b.w. before infection): significantly reduced parasite load in mouse livers | Stage selectivity (blood stage IC50 vs liver stage IC50) [2]: inhibited liver stage P. berghei significantly more potently than blood stage P. falciparum

Compound: FC(F)c1nc2ccccc2n1-c1nc(N2CCOCC2)nc(N2CCOCC2)n1 [ZSTK474]
Parasite inhibition with 12-hour treatment (liver stage P. berghei): inhibit parasites with only a 12-hour treatment

Compound: Nc1ccc(-c2ccc3ncc4ccc(=O)n(-c5cccc(C(F)(F)F)c5)c4c3c2)cn1 [Torin2]
Activity in mouse animal model [3]: exhibits activity against liver and blood stage P. berghei | IC50 (mTOR): […] | IC50 ([2]; read-out: Liver stage malaria IC50, liver stage): 40 nM | IC50 [4]: 1 nM

Compound: CNC(=O)c1cc(Oc2ccc(NC(=O)Nc3ccc(Cl)c(C(F)(F)F)c3)cc2)ccn1 [Nexavar]
Inhibition of parasite load in liver cells ([2]; low micromolar concentration): completely inhibited parasite load in liver cells

Compound: CCC(=O)N1CCN(c2ccc(-n3c(=O)ccc4cnc5ccc(-c6cnc7ccccc7c6)cc5c43)cc2C(F)(F)F)CC1 [Torin1]
Parasite inhibition with 12-hour treatment (liver stage P. berghei): inhibit parasites with only a 12-hour treatment

Compound: CC(C)(C)c1cnc(CSc2cnc(NC(=O)C3CCNCC3)s2)o1 [SNS-032]
Toxicity to mice [5]: relatively limited toxicity to mice | Parasite load in mouse livers vs vehicle ([1]; single oral dose 75 mg/kg b.w. before infection): reduce parasite load in mouse livers

Compound: CN1CC[C@H](c2c(O)cc(O)c3c(=O)cc(-c4ccccc4Cl)oc23)[C@H](O)C1 [Flavopiridol]
Percent binding to PfPK5 (PfPK5): > 50%

Percent binding to PfPK5 (PfPK5): > 50% | Kd (PfPK5; read-out: Kd for PfPK5, competition binding, absence of ATP): < 10000 nM
Compound: Cc1ccc([N+](=O)[O-])cc1S(=O)(=O)N(C)/N=C/c1cnc2ccc(Br)cn12 [PIK-75]
